This note sets out measurements from patent US20240325544A1, “CATIONIC LIPID FOR COVALENT MODIFICATION OF PEPTIDES” (PharmalN Corporation, priority 2023, published 2024).

Bridge positions count the residues as written; N and C are the ends. Square brackets hold non-standard residues; d marks the D form. Peptide text beside a SMILES is read from it. * marks the point of attachment. Stearoyl = CCCCCCCCCCCCCCCCCC(=O)*; Palmitoyl = CCCCCCCCCCCCCCCC(=O)*; Dab = NCC[C@H](N)C(=O)O; Hexanoyl = CCCCCC(=O)* Bounds are passed on as bounds.

This data set relates to Sprague Dawley rats. As to the kind of experiment: Dose-range finding of cationic alkyl modified CNP, subcutaneous bolus in rats (Table 2).

Protocol: Animal care and treatment: Male Sprague Dawley rats aged 8 to 10 weeks (Charles River, Hollister, CA) were housed in groups of two (n=3/group) in disposable polypropylene cages with rodent cob bedding at the PharmaIN animal facility. Animals had ad libitum access to food (LabDiet Pico Rodent #5053; Animal Specialties, Woodburn, OR) and water. Temperature (68-74° F.) and humidity (30-60%) were maintained within a controlled range, and a 12-hour light/dark cycle was used. […] Animals were monitored closely during the first 4 hours following injection, then hourly throughout the rest of the day for any signs of swelling or discoloration (dilatory side effect), lethargy (side effect), ataxia (ataxia is used as a marker of toxicity). Rats were allowed a 1-week wash-out period between bolus doses. Following final observations, animals were humanely euthanized through CO2 asphyxiation.

As to `CCCCCCCCCCCCCCCCCC(=O)N[C@@H](CCCCN)C(=O)N[C@@H](CCCCN)C(=O)N[C@@H](CCCCN)C(=O)N[C@@H](CCCCN)C(=O)NCC(=O)NCC(=O)NCC(=O)NCC(=O)N[C@@H](CC(C)C)C(=O)N[C@@H](CO)C(=O)N[C@@H](CCCCN)C(=O)NCC(=O)N[C@H]1CSSC[C@@H](C(=O)O)NC(=O)CNC(=O)[C@H](CC(C)C)NC(=O)CNC(=O)[C@H](CO)NC(=O)[C@H](CCC(N)=O)NC(=O)[C@H](CO)NC(=O)CNC(=O)[C@H]([C@@H](C)CC)NC(=O)[C@H](CCCNC(=N)N)NC(=O)[C@H](CC(=O)O)NC(=O)[C@H](CC(C)C)NC(=O)[C@H](CCCCN)NC(=O)[C@H](CC(C)C)NC(=O)CNC(=O)[C@H](Cc2ccccc2)NC1=O` [SEQ ID NO: 23] (Stearoyl-KKKKGGGGLSKGCFGLKLDRIGSQSGLGC-OH; disulfide 13-29; C-terminus assumed), where the note is “up to 10 mg/kg”, the “Ataxia** in n = 3” value was not below 3 mg/kg, the “Lethargy* in n = 3” value is recorded as not below 1 mg/kg and the “Swelling and/or Discoloration in n = 3” value is not below 1 mg/kg. Also, where the note is “value in parentheses”, the “Ataxia** in n = 3” value was “(0.94) μmol/kg”, the “Lethargy* in n = 3” value was “(0.31) μmol/kg” and the “Swelling and/or Discoloration in n = 3” value was “(0.31) μmol/kg”.

Regarding `CCCCCCCCCCCCCCCC(=O)N[C@@H](CCCCN)C(=O)N[C@@H](CCCCN)C(=O)NCC(=O)NCC(=O)NCC(=O)N[C@@H](CCCCN)C(=O)N[C@@H](CCCCN)C(=O)NCC(=O)N[C@@H](CC(C)C)C(=O)N[C@@H](CO)C(=O)N[C@@H](CCCCN)C(=O)NCC(=O)N[C@H]1CSSC[C@@H](C(=O)O)NC(=O)CNC(=O)[C@H](CC(C)C)NC(=O)CNC(=O)[C@H](CO)NC(=O)[C@H](CCC(N)=O)NC(=O)[C@H](CO)NC(=O)CNC(=O)[C@H]([C@@H](C)CC)NC(=O)[C@H](CCCNC(=N)N)NC(=O)[C@H](CC(=O)O)NC(=O)[C@H](CC(C)C)NC(=O)[C@H](CCCCN)NC(=O)[C@H](CC(C)C)NC(=O)CNC(=O)[C@H](Cc2ccccc2)NC1=O` [SEQ ID NO: 24] (Palmitoyl-KKGGGKKGLSKGCFGLKLDRIGSQSGLGC-OH; disulfide 13-29; C-terminus assumed), where the note is “up to 10 mg/kg”, the “Ataxia** in n = 3” value is on record as not below 5 mg/kg, the “Lethargy* in n = 3” value is recorded as not below 5 mg/kg and the “Swelling and/or Discoloration in n = 3” value is listed as not below 5 mg/kg. Where the note is “value in parentheses”, the “Ataxia** in n = 3” value is “(1.6) μmol/kg”, the “Lethargy* in n = 3” value was “(1.6) μmol/kg” and the “Swelling and/or Discoloration in n = 3” value is “(1.6) μmol/kg”.

Turning to `CCCCCCCCCCCCCCCC(=O)NCC(=O)NCC(=O)NCC(=O)N[C@@H](CCCCN)C(=O)N[C@@H](CCCCN)C(=O)N[C@@H](CCCCN)C(=O)N[C@@H](CCCCN)C(=O)NCC(=O)N[C@@H](CC(C)C)C(=O)N[C@@H](CO)C(=O)N[C@@H](CCCCN)C(=O)NCC(=O)N[C@H]1CSSC[C@@H](C(=O)O)NC(=O)CNC(=O)[C@H](CC(C)C)NC(=O)CNC(=O)[C@H](CO)NC(=O)[C@H](CCC(N)=O)NC(=O)[C@H](CO)NC(=O)CNC(=O)[C@H]([C@@H](C)CC)NC(=O)[C@H](CCCNC(=N)N)NC(=O)[C@H](CC(=O)O)NC(=O)[C@H](CC(C)C)NC(=O)[C@H](CCCCN)NC(=O)[C@H](CC(C)C)NC(=O)CNC(=O)[C@H](Cc2ccccc2)NC1=O` [SEQ ID NO: 25] (Palmitoyl-GGGKKKKGLSKGCFGLKLDRIGSQSGLGC-OH; disulfide 13-29; C-terminus assumed), where the note is “up to 10 mg/kg”, the “Ataxia** in n = 3” value is on record as not below 5 mg/kg, the “Lethargy* in n = 3” value is on record as not below 5 mg/kg and the “Swelling and/or Discoloration in n = 3” value is listed as not below 5 mg/kg. Further, where the note is “value in parentheses”, the “Ataxia** in n = 3” value is given as “(1.6) μmol/kg”, the “Lethargy* in n = 3” value is “(1.6) μmol/kg” and the “Swelling and/or Discoloration in n = 3” value was “(1.6) μmol/kg”.

With `CCCCCCCCCCCCCCCC(=O)N[C@H](CCCCN)C(=O)N[C@H](CCCCN)C(=O)N[C@H](CCCCN)C(=O)N[C@H](CCCCN)C(=O)NCC(=O)NCC(=O)NCC(=O)NCC(=O)N[C@@H](CC(C)C)C(=O)N[C@@H](CO)C(=O)N[C@@H](CCCCN)C(=O)NCC(=O)N[C@H]1CSSC[C@@H](C(=O)O)NC(=O)CNC(=O)[C@H](CC(C)C)NC(=O)CNC(=O)[C@H](CO)NC(=O)[C@H](CCC(N)=O)NC(=O)[C@H](CO)NC(=O)CNC(=O)[C@H]([C@@H](C)CC)NC(=O)[C@H](CCCNC(=N)N)NC(=O)[C@H](CC(=O)O)NC(=O)[C@H](CC(C)C)NC(=O)[C@H](CCCCN)NC(=O)[C@H](CC(C)C)NC(=O)CNC(=O)[C@H](Cc2ccccc2)NC1=O` [SEQ ID NO: 26] (Palmitoyl-[dK][dK][dK][dK]GGGGLSKGCFGLKLDRIGSQSGLGC-OH; disulfide 13-29; C-terminus assumed), for the setting “up to 10 mg/kg”, the “Ataxia** in n = 3” value is reported as not below 5 mg/kg, the “Lethargy* in n = 3” value is not below 5 mg/kg and the “Swelling and/or Discoloration in n = 3” value is given as not below 5 mg/kg. Besides, for the setting “value in parentheses”, the “Ataxia** in n = 3” value is reported as “(1.6) μmol/kg”, the “Lethargy* in n = 3” value was “(1.6) μmol/kg” and the “Swelling and/or Discoloration in n = 3” value is “(1.6) μmol/kg”.

For `CCCCCC(=O)N[C@@H](CCCCN)C(=O)N[C@@H](CCCCN)C(=O)NCC(=O)NCC(=O)NCC(=O)N[C@@H](CCCNC(=N)N)C(=O)N[C@@H](CCCNC(=N)N)C(=O)NCC(=O)N[C@@H](CC(C)C)C(=O)N[C@@H](CO)C(=O)N[C@@H](CCCCN)C(=O)NCC(=O)N[C@H]1CSSC[C@@H](C(=O)O)NC(=O)CNC(=O)[C@H](CC(C)C)NC(=O)CNC(=O)[C@H](CO)NC(=O)[C@H](CCC(N)=O)NC(=O)[C@H](CO)NC(=O)CNC(=O)[C@H]([C@@H](C)CC)NC(=O)[C@H](CCCNC(=N)N)NC(=O)[C@H](CC(=O)O)NC(=O)[C@H](CC(C)C)NC(=O)[C@H](CCCCN)NC(=O)[C@H](CC(C)C)NC(=O)CNC(=O)[C@H](Cc2ccccc2)NC1=O` [SEQ ID NO: 27] (Hexanoyl-KKGGGRRGLSKGCFGLKLDRIGSQSGLGC-OH; disulfide 13-29; C-terminus assumed), where the note is “up to 10 mg/kg”, the “Ataxia** in n = 3” value was not below 5 mg/kg, the “Lethargy* in n = 3” value was not below 5 mg/kg and the “Swelling and/or Discoloration in n = 3” value is not below 5 mg/kg. For the setting “value in parentheses”, the “Ataxia** in n = 3” value was “(1.6) μmol/kg”, the “Lethargy* in n = 3” value was “(1.6) μmol/kg” and the “Swelling and/or Discoloration in n = 3” value is listed as “(1.6) μmol/kg”.

On to `CCCCCC(=O)N[C@@H](CCCCN)C(=O)N[C@@H](CCCCN)C(=O)NCC(=O)NCC(=O)NCC(=O)N[C@@H](CCN)C(=O)N[C@@H](CCN)C(=O)NCC(=O)N[C@@H](CC(C)C)C(=O)N[C@@H](CO)C(=O)N[C@@H](CCCCN)C(=O)NCC(=O)N[C@H]1CSSC[C@@H](C(=O)O)NC(=O)CNC(=O)[C@H](CC(C)C)NC(=O)CNC(=O)[C@H](CO)NC(=O)[C@H](CCC(N)=O)NC(=O)[C@H](CO)NC(=O)CNC(=O)[C@H]([C@@H](C)CC)NC(=O)[C@H](CCCNC(=N)N)NC(=O)[C@H](CC(=O)O)NC(=O)[C@H](CC(C)C)NC(=O)[C@H](CCCCN)NC(=O)[C@H](CC(C)C)NC(=O)CNC(=O)[C@H](Cc2ccccc2)NC1=O` [SEQ ID NO: 28] (Hexanoyl-KKGGG[Dab][Dab]GLSKGCFGLKLDRIGSQSGLGC-OH; disulfide 13-29; C-terminus assumed), for which, under “up to 10 mg/kg”, the “Ataxia** in n = 3” value is listed as not below 5 mg/kg, the “Lethargy* in n = 3” value was not below 5 mg/kg and the “Swelling and/or Discoloration in n = 3” value is not below 5 mg/kg. For the same compound, where the note is “value in parentheses”, the “Ataxia** in n = 3” value is recorded as “(1.6) μmol/kg”, the “Lethargy* in n = 3” value is “(1.6) μmol/kg” and the “Swelling and/or Discoloration in n = 3” value was “(1.6) μmol/kg”.
